The values that follow come from patent US9920088B2, “Triterpene derivative and its anti-influenza use” (Peking University, priority 2012, dated 2018).

Usually EC50 stands for the concentration at which the effect is half-maximal. By inhibition is commonly meant how much of the control response was suppressed. What is called IC50 is the concentration at which inhibition is half-maximal.

Entries after “also recorded” stand apart in the source; their conditions may differ. Like-named read-outs stand apart in the source and are kept apart here.

Series [1] in a line: in vitro. Conditions: dog.
Series [2] has as its system A/Puerto Rico/8/34 (H1N1). Briefly: CPE reduction assay, PR/8 (H1N1). It counts as cell-based. Conditions: Influenza A virus.
The test system of series [3] is different influenza viruses. The series is described as follows: CPE reduction assays on different influenza viruses. It counts as cell-based, influenza A virus and influenza B virus. Conditions: for inhibition effect on different influenza viruses: PR/8, LN/1109, JX/312, HN/1222, B/SZ/155.
The test system of another series is MDCK cells. The conditions noted are these: dog, 48 h; for Cell viability (%) / Cell viability(%): 50 μM.
Series [4] deals with influenza virus A/WSN/33(H1N1). Briefly: Cytopathic effect (CPE) inhibition assay, WSN virus in MDCK cells. Conditions: for Viral Infectivity (%): WSN MOI=1, 48 h, lower = better inhibition; for anti-influenza virus activity: WSN, CPE; for EC50: H1N1|WSN, 48 h. It counts as cell-based.
Series [5] relates to A/JiangXi-DongHu/312/2006 (H3N2). The series is described as follows: microbe, parasite or virus in culture. It counts as cell-based, influenza A virus.
The next series has as its system B/ShenZhen/155/2005. Briefly: CPE reduction assay, B/SZ/155. Type of series: cell-based. Conditions: Influenza B virus, B/SZ/155, CPE.
Series [6] can be described thus: in vitro. The conditions noted are these: human.
Series [7] in a line: in vitro. Conditions: human. This is another data set of the same source.
Series [8] relates to H5N1 pseudotype virus (A/VietNam/1203/2004 (H5N1) HA/NA). Briefly: microbe, parasite or virus in culture. Conditions: Influenza A virus, H5N1, read-out: inhibition rate. It counts as cell-based.
The target of series [9] is influenza virus (WSN strain) hemagglutinin protein (HA) (Influenza A virus, UniProt P03454). Briefly: Hemagglutination inhibition (HI) assay. The conditions noted are these: chicken erythrocytes.
influenza virus (WSN strain) hemagglutinin protein (HA), sequence (P03454 18-342 limits assumed): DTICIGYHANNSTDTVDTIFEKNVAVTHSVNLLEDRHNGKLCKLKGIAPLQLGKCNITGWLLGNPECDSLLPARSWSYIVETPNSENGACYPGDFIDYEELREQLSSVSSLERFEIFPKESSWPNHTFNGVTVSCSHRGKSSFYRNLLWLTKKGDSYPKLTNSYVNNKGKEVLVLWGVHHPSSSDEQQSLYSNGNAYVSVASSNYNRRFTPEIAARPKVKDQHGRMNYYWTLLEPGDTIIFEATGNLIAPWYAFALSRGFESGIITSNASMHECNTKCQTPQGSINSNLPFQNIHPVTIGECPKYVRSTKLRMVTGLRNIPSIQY
influenza virus (WSN strain) hemagglutinin protein (HA), sequence (P03454 344-565 partner limits assumed): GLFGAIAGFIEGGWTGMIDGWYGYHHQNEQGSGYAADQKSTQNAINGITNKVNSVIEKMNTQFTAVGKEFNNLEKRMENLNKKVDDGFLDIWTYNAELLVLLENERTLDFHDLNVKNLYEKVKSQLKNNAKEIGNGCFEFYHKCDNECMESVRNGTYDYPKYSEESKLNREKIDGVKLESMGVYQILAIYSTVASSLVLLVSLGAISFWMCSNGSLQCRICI
A further series deals with A/WSN/33 (H1N1) virus. Briefly: Plaque inhibition assay. Type of series: cell-based, influenza A virus. The conditions noted are these: for Plaque number: 0 μM = 100.
Another series has as its system A/WSN/33(H1N1) virus. Briefly: Time-of-addition experiment (viral NP by Western blotting). It counts as cell-based, influenza A virus. A general note: A western blot detects proteins with antibodies after separation by electrophoresis.
For series [10], the system named is H1N1 pseudotype virus (A/WSN/33 (H1N1) HA/NA). Briefly: microbe, parasite or virus in culture. The conditions noted are these: Influenza A virus, H1N1pp, DMSO set to zero, read-out: inhibition rate. Type of series: cell-based.
In a further series the test system is VSV pseudotype virus. The series is described as follows: microbe, parasite or virus in culture. It counts as cell-based. Conditions: Vesicular stomatitis virus, read-out: inhibition rate.
The nature of series [11]: Cytotoxicity (CellTiter-Glo), MDCK cells. The conditions noted are these: dog. For orientation: Cellular ATP, detected with luciferase, serves as a proxy for viable cell number.
Another series has as its system HIV. Conditions: reported by European researchers; cited from earlier work.
The mark [12] stands for this setting: PR/8 (H1N1), CPE, read-out: EC50.

In turn, `CC(=O)OCC1O[C@H](NC(=O)[C@]23CCC(C)(C)CC2C2=CCC4[C@@]5(C)CC[C@H](O)C(C)(C)C5CC[C@@]4(C)[C@]2(C)CC3)C(OC(C)=O)C(OC(C)=O)[C@@H]1OC(C)=O` (stereo partly drawn) [Compound Y5, 3β-hydroxy-olean-12-en-28-oic acid-28-N-(2,3,4,6-tetra-O-acetyl-β-D-galactoside)] came in with a CC50 at 48 h in “in vitro [1]” above 100 µM. For the same compound, the EC50 in [2] (setting [12]) was 7.41 ± 0.05 µM; in series [3] (strain not specified) it was below 2 µM; in [5] (Influenza A virus, H3N2) it was 2.72 ± 0.35 µM; in the series with B/ShenZhen/155/2005, 2.8 ± 0.74 µM. Moreover, the “inhibition effect on different influenza viruses” value in [3] is recorded as “various extent of inhibition effect”. Besides, in the series on MDCK cells, the “Cell viability (%)” value is 81.7%. Moreover, the “Viral Infectivity (%)” value in series [4] (Table 8, 50 μM) worked out at 9.0%. Further, the “anti-influenza virus activity” value in [4] (50 μM) is given as “significant anti-influenza virus activity; also recorded: most significant anti-influenza virus activity”.
For `CC(=O)OCC1O[C@H](O[C@H]2C(COC(C)=O)O[C@H](OC(=O)[C@]34CCC(C)(C)C[C@H]3C3=CC[C@@H]5[C@@]6(C)CC[C@H](O)C(C)(C)[C@@H]6CC[C@@]5(C)[C@]3(C)CC4O)C(OC(C)=O)C2OC(C)=O)C(OC(C)=O)C(OC(C)=O)[C@@H]1OC(C)=O` (stereo partly drawn) [Compound Q10, 3β,16α-dihydroxy-olean-12-en-28-oic acid-28-O-(hepta-O-acetyl-β-D-lactoside)], the CC50 at 48 h in “in vitro [1]”, in “in vitro [6]” and in “in vitro [7]” was above 100 µM in each case. Also, the “Cell viability(%)” value in the series with MDCK cells was 98.1%. For the same compound, the EC50 in series [4] (MDCK) is above 100 µM. Further, in series [4] (Table 6, 50 μM), the “Viral Infectivity (%)” value was found to be 100.6%.
On to `NC(=O)c1ncn([C@@H]2O[C@H](CO)[C@@H](O)[C@H]2O)n1` [RBV, ribavirin, reference compound], for which the concentration for a half-maximal effect (EC50) was determined as 4.02 ± 1.27 µM in series [2]; 42.7 µM in [4] (MDCK); 4.19 ± 0.35 µM in series [5] (Influenza A virus, H3N2); 1.32 ± 0.6 µM with B/ShenZhen/155/2005.
In the series “in vitro [1]”, `CC1(C)CC[C@@]2(C(=O)N[C@H]3OC(CO)[C@@H](O)C(O)C3O)C(C1)C1=CCC3[C@@]4(C)CC[C@H](O)C(C)(C)C4CC[C@@]3(C)[C@]1(C)C[C@H]2O` (stereo partly drawn) [Compound Y2, 3β,16α-dihydroxy-olean-12-en-28-oic acid-28-N-(β-D-galactoside)] gave a CC50 at 48 h above 100 µM. For the same compound, the EC50 was 6.22 ± 0.83 µM in [2] (setting [12]), above 22.2 µM in [5] and above 22.2 µM in the series on B/ShenZhen/155/2005. Besides, the “inhibition effect on different influenza viruses” value in series [3] is reported as “various extent of inhibition effect”. Further, in the series with MDCK cells, the “Cell viability (%)” value was 105.0%. In series [4] (Table 8, 50 μM), the “Viral Infectivity (%)” value is on record as 17.5%. Also, the “anti-influenza virus activity” value in [4] (50 μM) is reported as “significant anti-influenza virus activity”.
On to `CC1(C)CC[C@]2(C(=O)O[C@H]3OC(CO)[C@@H](O)C(O)C3O)C(O)C[C@]3(C)C(=CC[C@@H]4[C@@]5(C)CC[C@H](O)C(C)(C)[C@@H]5CC[C@]43C)[C@@H]2C1` (stereo partly drawn) [Compound Q9, 3β,16α-dihydroxy-olean-12-en-28-oic acid-28-O-(β-D-galactoside)], for which the CC50 at 48 h in “in vitro [1]”, in “in vitro [6]” and in the series “in vitro [7]” was above 100 µM in each case. The EC50 in [2] (setting [12]) was found to be 17.5 ± 0.43 µM; in [4] (MDCK), 48.7 µM; in series [5] (Influenza A virus, H3N2), 16.9 ± 5.38 µM; in the series on B/ShenZhen/155/2005, 36.2 ± 7.21 µM. The inhibition at 50 µM in [8] was 16.8%; in series [4] (MDCK, Table 9, 50 μM, protective rate against cytopathy, read-out: IAV inhibition rate (%)), 53.6 ± 6.16%; in series [10] it was 61.9%; in the series on VSV pseudotype virus, 3.8%. The “effect on binding of viruses to cellular receptors” value in series [9] was “interfered the binding of viruses to cellular receptors”. Besides, the IC50 in the series with A/WSN/33 (H1N1) virus (Influenza A virus, WSN, MDCK cells, read-out: IC50 (plaque formation reduction)) was below 5 µM. The Plaque number with A/WSN/33 (H1N1) virus (Q9 5 μM) was 42.9 ± 5.8; in the series with A/WSN/33 (H1N1) virus (Q9 10 μM), 21.8 ± 2.5; with A/WSN/33 (H1N1) virus (Q9 25 μM), 14.1 ± 1.7; in the series on A/WSN/33 (H1N1) virus (Q9 50 μM), 7.6 ± 2.5; in the series with A/WSN/33 (H1N1) virus (Q9 100 μM), 0. Further, in [3], the “inhibition effect on different influenza viruses” value was “various extent of inhibition effect”. The compound also had a CC50 with MDCK cells above 200 µM. Further, in the series on MDCK cells, the “Cell viability (%)” value came to 100.3%. Moreover, the “Cell viability(%)” value in the series on MDCK cells came out at 89%. Besides, the “Viral Infectivity (%)” value was determined as 21.1% in series [4] (Table 6, 50 μM) and 21.1% in series [4] (Table 8, 50 μM). The “anti-influenza virus activity” value in series [4] (50 μM) is reported as “significant inhibitory effect on influenza virus; also recorded: significant inhibition activity against influenza virus”. In addition, the “NP level reduction compared with the DMSO control” value is reported as around 62% in the series on A/WSN/33(H1N1) virus (interval 0-2 h) and “around 75%” in the series with A/WSN/33(H1N1) virus (interval 0-10 h). The “antiviral activity” value in the series with A/WSN/33(H1N1) virus (intervals 2-5, 5-8, and 8-10 h) is on record as “no antiviral activity was detected”. In the series on A/WSN/33(H1N1) virus (time-of-addition), the “stage of viral lifecycle acted on” value is on record as “acted on the entry step of influenza virus into cells; also recorded: effective at the early stage (0-2 h) of the viral lifecycle”.
Take `NC12CC3CC(CC(C3)C1)C2` [Amantadine, amantadine, reference compound]: the EC50 in series [2] (setting [12]) is 7.41 ± 0.21 µM; in series [5] (Influenza A virus, H3N2), 8.58 ± 1.65 µM; in the series on B/ShenZhen/155/2005 it was above 83.2 µM. In [11], this compound registered a CC50 at 48 h above 200 µM.
With `CCOC(=O)C1=C[C@@H](OC(CC)CC)[C@H](NC(C)=O)[C@@H](N)C1` [OSV-P, oseltamivir phosphate, reference compound], the CC50 at 48 h in “in vitro [1]”, in “in vitro [6]” and in the series “in vitro [7]” was above 100 µM each time. For the same compound, the EC50 in series [2] (setting [12]) was above 200 µM; in series [4] (MDCK), 45.6 µM; in [5] (Influenza A virus, H3N2), 2.06 ± 0.58 µM; in the series on B/ShenZhen/155/2005, 91.1 ± 34.5 µM. In addition, the CC50 in the series with MDCK cells is above 200 µM.
As to `CC1(C)CC[C@]2(C(=O)O)CC[C@]3(C)C(=CC[C@@H]4[C@@]5(C)C[C@@H](O)[C@H](O)C(C)(C)[C@@H]5CC[C@]43C)[C@@H]2C1` [hawthorn acid], the “inhibition rate of spread of HIV in the body” value with HIV is recorded as “up to 80%”.
With `CC(=O)OCC1O[C@H](NC(=O)[C@]23CCC(C)(C)CC2C2=CCC4[C@@]5(C)CC[C@H](O)C(C)(C)C5CC[C@@]4(C)[C@]2(C)CC3)C(OC(C)=O)C(OC(C)=O)[C@H]1OC(C)=O` (stereo partly drawn) [Compound Y7, 3β-hydroxy-olean-12-en-28-oic acid-28-N-(2,3,4,6-tetra-O-acetyl-β-D-mannoside)], in the series with MDCK cells, the “Cell viability (%)” value stood at 82.3%. Moreover, the “Viral Infectivity (%)” value in [4] (Table 8, 50 μM) amounted to 17.4%. The “anti-influenza virus activity” value in series [4] (50 μM) is “significant anti-influenza virus activity”.
